Measured values: the NIST ThermoML archive (doi:10.1021/je700276z)
Numbers after ± are expanded uncertainties.

Experiment: Solid-liquid equilibrium temperature
Settings: Crystal

Structure (SMILES) | Solid-liquid equilibrium temperature (100000 kPa) [K] | Solid-liquid equilibrium temperature (200000 kPa) [K] | Solid-liquid equilibrium temperature (300000 kPa) [K] | Solid-liquid equilibrium temperature (400000 kPa) [K] | Solid-liquid equilibrium temperature (500000 kPa) [K] | Solid-liquid equilibrium temperature (600000 kPa) [K] | Solid-liquid equilibrium temperature (700000 kPa) [K] | Solid-liquid equilibrium temperature (800000 kPa) [K] | Solid-liquid equilibrium temperature (900000 kPa) [K] | Solid-liquid equilibrium temperature (1000000 kPa) [K] | Solid-liquid equilibrium temperature (1500000 kPa) [K] | Solid-liquid equilibrium temperature (2000000 kPa) [K] | Solid-liquid equilibrium temperature (2500000 kPa) [K] | Solid-liquid equilibrium temperature (3000000 kPa) [K] | Solid-liquid equilibrium temperature (3500000 kPa) [K]
c1ccccc1 [benzene] | 306.44 ± 1.6 | 329.93 ± 1.8 | 351.25 ± 2 | 370.85 ± 2.2 | 389.07 ± 2.3 | 406.15 ± 2.5 | 422.25 ± 2.6 | 437.52 ± 2.8 | 452.06 ± 2.9 | 465.96 ± 3.1 | 538.73 ± 10 | 584.85 ± 10 | 625.73 ± 10 | 663.67 ± 10 | –
Brc1ccccc1 [bromobenzene] | 259.05 ± 1.3 | 276.45 ± 1.5 | 292.45 ± 1.7 | 310.05 ± 1.8 | 322.55 ± 1.9 | 336.15 ± 2 | 349.25 ± 2.2 | 361.85 ± 2.3 | 374.75 ± 2.4 | 382.85 ± 10 | 430.05 ± 10 | 473.67 ± 10 | 514.22 ± 10 | 553.94 ± 10 | 587.21 ± 10
O=[N+]([O-])c1ccccc1 [nitrobenzene] | 299.74 ± 1.5 | 320.77 ± 1.7 | 340.02 ± 1.9 | 360.41 ± 2.1 | 378.61 ± 2.3 | 395.9 ± 2.4 | 412.3 ± 2.6 | 427.24 ± 2.7 | 442.98 ± 2.9 | 462.61 ± 10 | 516.38 ± 10 | 565.62 ± 10 | 595.88 ± 10 | 614.38 ± 10 | –
Clc1ccccc1 [chlorobenzene] | 246.4 ± 1.2 | 263.03 ± 1.4 | 273.46 ± 1.5 | 288.44 ± 1.7 | 301.03 ± 1.8 | 315.62 ± 1.9 | 325.56 ± 2 | 336.87 ± 2.1 | 348.81 ± 2.2 | 354.76 ± 10 | 403.44 ± 10 | 440.81 ± 10 | 473.28 ± 10 | 503.63 ± 10 | 530.87 ± 10
